Experimental data reported in the supplement of paper PMC10307832.

How the values were obtained:
Assay in all cases: relative viability (nuclei count vs DMSO), 5 days (fraction); higher = more cells survive
[1] = compound: O=C(NCCCNc1nc(Nc2cccc(NC(=O)N3CCCC3)c2)ncc1I)c1cccs1 [BX 795] + Nc1ncn([C@H]2C[C@H](O)[C@@H](CO)O2)c(=O)n1 [Decitabine] (partner 2 µM)
Summary of the method: (§1)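 A single step with final 0.05% Triton X-100, 1% formaldehyde and 1 ug/ml Hoechst fixed the cells and stained nuclei 5 days after treatment. Lung cancer cell lines in 1536-well plates had been treated by pin tool the day after seeding with one drug alone or a fixed anchor-drug dose plus five library-drug doses (not always all listed) in √10 steps, and nuclei were counted on 4× images. Relative viability is the ratio of nuclei in treated wells to nuclei in vehicle wells, taken as the median of duplicate plates.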

[2] = compound: O=C(NCCCNc1nc(Nc2cccc(NC(=O)N3CCCC3)c2)ncc1I)c1cccs1 [BX 795] + CS(=O)(=O)CCNCc1ccc(-c2ccc3ncnc(Nc4ccc(OCc5cccc(F)c5)c(Cl)c4)c3c2)o1 [Lapatinib] (partner 2 µM)
Summary of the method: as §1

[3] = compound: O=C(NCCCNc1nc(Nc2cccc(NC(=O)N3CCCC3)c2)ncc1I)c1cccs1 [BX 795] + Cc1nc(Nc2ncc(C(=O)Nc3c(C)cccc3Cl)s2)cc(N2CCN(CCO)CC2)n1 [Dasatinib] (partner 0.075 µM)
Summary of the method: as §1

[4] = compound: O=C(NCCCNc1nc(Nc2cccc(NC(=O)N3CCCC3)c2)ncc1I)c1cccs1 [BX 795] + O=C(CCCCCCC(=O)Nc1ccccc1)NO [Vorinostat] (partner 1 µM)
Summary of the method: as §1

[5] = compound: O=C(NCCCNc1nc(Nc2cccc(NC(=O)N3CCCC3)c2)ncc1I)c1cccs1 [BX 795] + O=C(c1cc(Cc2n[nH]c(=O)c3ccccc23)ccc1F)N1CCN(C(=O)C2CC2)CC1 [Olaparib] (partner 8 µM)
Summary of the method: as §1

Cell Line	relative viability ([1]; first compound 0.04 µM)	relative viability ([1]; first compound 0.1265 µM)	relative viability ([1]; first compound 0.4 µM)	relative viability ([1]; first compound 1.265 µM)	relative viability ([2]; first compound 0.04 µM)	relative viability ([2]; first compound 0.1265 µM)	relative viability ([2]; first compound 0.4 µM)	relative viability ([2]; first compound 1.265 µM)	relative viability ([3]; first compound 0.04 µM)	relative viability ([3]; first compound 0.1265 µM)	relative viability ([3]; first compound 0.4 µM)	relative viability ([3]; first compound 1.265 µM)	relative viability ([4]; first compound 0.04 µM)	relative viability ([4]; first compound 0.1265 µM)	relative viability ([4]; first compound 0.4 µM)	relative viability ([4]; first compound 1.265 µM)	relative viability ([5]; first compound 0.04 µM)	relative viability ([5]; first compound 0.1265 µM)	relative viability ([5]; first compound 0.4 µM)	relative viability ([5]; first compound 1.265 µM)
LU99A	0.967	0.81	0.921	0.428	1.05	1.03	0.714	0.665	0.78	0.571	0.472	0.364	0.472	0.485	0.37	0.363	0.211	0.264	0.17	0.222
LXF-289	0.448	0.347	0.582	0.373	0.867	0.896	0.904	0.843	0.209	0.28	0.185	0.15	0.838	0.719	0.811	0.674	1.06	1.04	1.2	0.81
NCI-H23	0.298	0.234	0.346	0.315	1.24	1.26	0.812	0.884	0.871	0.8	0.507	0.884	0.583	0.651	0.376	0.285	0.335	0.308	0.247	0.225
NCI-H322M	0.87	0.887	0.801	0.741	0.675	0.616	0.628	0.684	0.256	0.254	0.295	0.28	0.981	0.884	1.36	1.18	0.978	0.821	0.577	0.885
NCI-H441	0.281	0.262	0.316	0.245	–	–	–	–	0.695	0.7	0.587	0.459	0.893	0.843	0.848	0.613	0.665	0.623	0.497	0.413
NCI-H1563	–	–	–	–	1.01	1.01	1.05	0.785	0.476	0.429	0.439	0.405	–	–	–	–	–	–	–	–
NCI-H1792	0.546	–	0.588	0.408	0.872	0.903	0.981	0.842	0.792	0.764	0.821	0.664	–	–	–	–	0.401	–	0.302	0.422
NCI-H2228	–	–	–	–	0.87	1.3	0.791	0.319	0.568	0.594	0.388	0.32	0.761	0.898	0.63	0.556	0.788	0.74	0.559	0.311
NCI-H2342	0.87	0.686	0.823	0.641	–	–	–	–	0.307	0.319	0.287	0.312	0.754	0.734	0.651	0.726	0.497	0.448	0.479	0.357
